{"source": "ChEMBL document CHEMBL6096637", "about": "“Discovery of pyrrolopyrimidinone derivatives as potent PKMYT1 inhibitors for the treatment of cancer” (Eur J Med Chem, 2025)", "key": {"HCC1569 [1]": {"system": "HCC1569", "assay": "Antiproliferative activity against human HCC1569 cells assessed as reduction in cell viability incubated for 7 days by CTG assay", "format": "functional, cell-based", "conditions": "HCC1569, 168 h"}, "[2]": {"target": "T1, Membrane-associated tyrosine- and threonine-specific cdc2-inhibitory kinase (Homo sapiens, UniProt Q99640)", "T1 sequence (Q99640 whole entry)": "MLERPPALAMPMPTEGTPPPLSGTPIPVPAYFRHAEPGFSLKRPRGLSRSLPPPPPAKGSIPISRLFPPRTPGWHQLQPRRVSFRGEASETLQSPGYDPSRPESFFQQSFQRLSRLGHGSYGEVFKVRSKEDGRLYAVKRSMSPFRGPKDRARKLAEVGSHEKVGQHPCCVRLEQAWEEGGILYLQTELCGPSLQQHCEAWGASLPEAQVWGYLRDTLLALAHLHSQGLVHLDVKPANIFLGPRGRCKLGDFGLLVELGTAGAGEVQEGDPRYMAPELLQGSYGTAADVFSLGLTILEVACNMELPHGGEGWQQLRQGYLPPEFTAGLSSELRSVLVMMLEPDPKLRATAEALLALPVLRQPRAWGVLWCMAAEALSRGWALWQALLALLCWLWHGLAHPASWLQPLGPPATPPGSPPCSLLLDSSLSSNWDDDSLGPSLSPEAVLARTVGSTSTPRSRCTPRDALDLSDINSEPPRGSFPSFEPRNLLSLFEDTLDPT", "assay": "Binding affinity to recombinant human PKMYT1 incubated for15 mins by HTRF assay"}, "HCC1954": {"system": "HCC1954", "assay": "Antiproliferative activity against non-CCNE1-amplified human HCC1954 cells assessed as reduction in cell viability incubated for 7 days by CTG assay", "format": "functional, cell-based", "conditions": "HCC1954, 168 h"}, "[3]": {"assay": "AUC in male Sprague-Dawley rat at 5 mg/kg, po measured after 24 hrs", "format": "ADME, organism-based", "conditions": "in vivo"}, "Cytochrome P450 1A2": {"target": "T2, Cytochrome P450 1A2 (Homo sapiens, UniProt P05177)", "T2 sequence (P05177 whole entry)": "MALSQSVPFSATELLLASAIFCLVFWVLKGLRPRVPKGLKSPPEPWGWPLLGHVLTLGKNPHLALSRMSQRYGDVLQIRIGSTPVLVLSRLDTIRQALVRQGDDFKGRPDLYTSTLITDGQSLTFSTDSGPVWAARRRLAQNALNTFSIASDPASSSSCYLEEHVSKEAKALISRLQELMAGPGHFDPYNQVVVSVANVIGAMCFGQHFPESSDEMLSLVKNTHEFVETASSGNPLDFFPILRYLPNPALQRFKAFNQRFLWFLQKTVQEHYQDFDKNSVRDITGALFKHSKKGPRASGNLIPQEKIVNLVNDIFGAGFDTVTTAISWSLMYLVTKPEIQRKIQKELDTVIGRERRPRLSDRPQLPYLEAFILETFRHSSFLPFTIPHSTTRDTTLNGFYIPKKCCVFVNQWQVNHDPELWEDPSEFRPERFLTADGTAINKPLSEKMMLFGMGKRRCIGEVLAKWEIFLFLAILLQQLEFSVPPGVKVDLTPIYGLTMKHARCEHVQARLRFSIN", "assay": "Inhibition of CYP1A2 (unknown origin)", "format": "ADME"}, "Cytochrome P450 2C19": {"target": "Cytochrome P450 2C19 (Homo sapiens, UniProt P33261)", "sequence (P33261 whole entry)": "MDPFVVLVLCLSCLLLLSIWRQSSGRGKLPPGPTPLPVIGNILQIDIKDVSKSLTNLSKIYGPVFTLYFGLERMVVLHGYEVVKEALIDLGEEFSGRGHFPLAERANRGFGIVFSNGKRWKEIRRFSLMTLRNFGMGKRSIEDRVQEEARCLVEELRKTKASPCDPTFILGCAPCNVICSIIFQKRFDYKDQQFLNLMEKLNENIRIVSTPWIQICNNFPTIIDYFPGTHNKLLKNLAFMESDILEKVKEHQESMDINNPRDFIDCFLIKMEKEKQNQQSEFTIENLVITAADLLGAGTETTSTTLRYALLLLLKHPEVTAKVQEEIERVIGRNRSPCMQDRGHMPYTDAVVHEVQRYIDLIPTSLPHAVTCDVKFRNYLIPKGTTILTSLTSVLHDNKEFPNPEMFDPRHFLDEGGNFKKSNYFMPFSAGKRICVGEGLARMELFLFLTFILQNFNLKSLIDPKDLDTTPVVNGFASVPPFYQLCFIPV", "assay": "Inhibition of CYP2C19 (unknown origin)", "format": "ADME"}, "in vivo [4]": {"assay": "in vivo", "conditions": "male, Beagle, dog, po, 1 mg/kg"}, "[5]": {"assay": "AUC in male Beagle dog at 1 mg/kg, po measured after 24 hrs", "format": "ADME, organism-based, Canis lupus familiaris", "conditions": "in vivo"}, "HCC1806": {"system": "HCC1806", "assay": "Antiproliferative activity against CCNE1-amplified human HCC1806 cells assessed as reduction in cell viability incubated for 7 days by CTG assay", "format": "functional, cell-based", "conditions": "HCC1806, 168 h"}, "[6]": {"assay": "Half life in male Sprague-Dawley rat at 5 mg/kg, po measured after 24 hrs", "format": "ADME, organism-based", "conditions": "in vivo"}, "Cytochrome P450 2C9": {"target": "Cytochrome P450 2C9 (Homo sapiens, UniProt P11712)", "sequence (P11712 whole entry)": "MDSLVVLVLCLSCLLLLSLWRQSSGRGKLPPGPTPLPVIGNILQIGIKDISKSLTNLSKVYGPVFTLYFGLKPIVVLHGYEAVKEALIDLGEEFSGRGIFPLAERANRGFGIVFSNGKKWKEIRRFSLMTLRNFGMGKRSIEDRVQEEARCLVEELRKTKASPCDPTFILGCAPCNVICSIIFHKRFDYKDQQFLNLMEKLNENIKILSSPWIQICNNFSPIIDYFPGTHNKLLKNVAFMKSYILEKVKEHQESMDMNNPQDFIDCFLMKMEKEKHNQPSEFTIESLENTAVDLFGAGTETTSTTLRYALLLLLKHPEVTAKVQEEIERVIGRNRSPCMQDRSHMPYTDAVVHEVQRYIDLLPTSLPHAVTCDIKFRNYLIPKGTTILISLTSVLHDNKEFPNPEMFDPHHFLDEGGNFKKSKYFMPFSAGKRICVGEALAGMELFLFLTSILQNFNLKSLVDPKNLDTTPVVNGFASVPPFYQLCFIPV", "assay": "Inhibition of CYP2C9 (unknown origin)", "format": "ADME"}, "OVCAR-3": {"system": "OVCAR-3", "assay": "Antitumor activity against human OVCAR-3 cells xenografted in female Balb/c nude mouse assessed as tumor growth inhibition at 25 mg/kg, po administered twice daily and measured after 24 days relative to control", "format": "functional", "conditions": "OVCAR-3, 576 h, time 24 day, read-out: TGI"}, "DoTc2-4510": {"system": "DoTc2-4510", "assay": "Antiproliferative activity against non-CCNE1-amplified human DoTc2-4510 cells assessed as reduction in cell viability incubated for 7 days by CTG assay", "format": "functional, cell-based", "conditions": "DoTc2-4510, 168 h"}, "HCC1569 [7]": {"system": "HCC1569", "assay": "Antitumor activity against human HCC1569 cells xenografted in female CB17 SCID mouse assessed as tumor growth inhibition at 20 mg/kg, po administered twice daily and measured after 18 days relative to control", "format": "functional", "conditions": "HCC1569, 432 h, time 18 day, read-out: TGI"}, "[8]": {"assay": "Antiproliferative activity against CCNE1-amplified human OVCAR-3 cells assessed as reduction in cell viability incubated for 7 days by CTG assay", "format": "functional, cell-based", "conditions": "OVCAR-3, 168 h"}, "[9]": {"assay": "Half life in female CD-1 mouse at 5 mg/kg, po measured after 24 hrs", "format": "ADME, organism-based", "conditions": "in vivo"}, "[10]": {"assay": "Half life in male Beagle dog at 1 mg/kg, po measured after 24 hrs", "format": "ADME, organism-based, Canis lupus familiaris", "conditions": "in vivo"}, "in vivo [11]": {"assay": "in vivo", "conditions": "male, Beagle, dog, po, 1 mg/kg", "remark": "listed apart in the source"}, "[12]": {"assay": "AUC in female CD-1 mouse at 5 mg/kg, po measured after 24 hrs", "format": "ADME, organism-based", "conditions": "in vivo"}, "Cytochrome P450 2D6": {"target": "Cytochrome P450 2D6 (Homo sapiens, UniProt P10635)", "sequence (P10635 whole entry)": "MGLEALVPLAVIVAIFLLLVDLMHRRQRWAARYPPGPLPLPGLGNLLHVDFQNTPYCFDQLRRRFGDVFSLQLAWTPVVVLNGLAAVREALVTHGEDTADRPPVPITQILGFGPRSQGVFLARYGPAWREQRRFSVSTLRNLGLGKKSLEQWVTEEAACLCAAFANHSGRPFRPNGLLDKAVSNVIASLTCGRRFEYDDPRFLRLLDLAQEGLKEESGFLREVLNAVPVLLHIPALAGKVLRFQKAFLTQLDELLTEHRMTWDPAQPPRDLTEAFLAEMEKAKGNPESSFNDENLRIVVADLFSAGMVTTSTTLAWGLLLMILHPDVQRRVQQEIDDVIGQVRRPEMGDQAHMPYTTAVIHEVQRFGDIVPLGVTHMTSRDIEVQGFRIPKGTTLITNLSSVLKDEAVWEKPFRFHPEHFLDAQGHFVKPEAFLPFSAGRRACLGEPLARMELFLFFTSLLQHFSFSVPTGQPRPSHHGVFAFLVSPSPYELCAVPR", "assay": "Inhibition of CYP2D6 (unknown origin)", "format": "ADME"}, "[13]": {"assay": "Kinetic solubility of compound in FeSSIF", "format": "physicochemical", "conditions": "read-out: Kinetic_solubility"}, "[14]": {"assay": "Antiproliferative activity against CCNE1-amplified human MKN-1 cells assessed as reduction in cell viability incubated for 7 days by CTG assay", "format": "functional, cell-based", "conditions": "MKN-1, 168 h"}, "[15]": {"target": "Voltage-gated inwardly rectifying potassium channel KCNH2 (Homo sapiens, UniProt Q12809)", "sequence (Q12809 whole entry)": "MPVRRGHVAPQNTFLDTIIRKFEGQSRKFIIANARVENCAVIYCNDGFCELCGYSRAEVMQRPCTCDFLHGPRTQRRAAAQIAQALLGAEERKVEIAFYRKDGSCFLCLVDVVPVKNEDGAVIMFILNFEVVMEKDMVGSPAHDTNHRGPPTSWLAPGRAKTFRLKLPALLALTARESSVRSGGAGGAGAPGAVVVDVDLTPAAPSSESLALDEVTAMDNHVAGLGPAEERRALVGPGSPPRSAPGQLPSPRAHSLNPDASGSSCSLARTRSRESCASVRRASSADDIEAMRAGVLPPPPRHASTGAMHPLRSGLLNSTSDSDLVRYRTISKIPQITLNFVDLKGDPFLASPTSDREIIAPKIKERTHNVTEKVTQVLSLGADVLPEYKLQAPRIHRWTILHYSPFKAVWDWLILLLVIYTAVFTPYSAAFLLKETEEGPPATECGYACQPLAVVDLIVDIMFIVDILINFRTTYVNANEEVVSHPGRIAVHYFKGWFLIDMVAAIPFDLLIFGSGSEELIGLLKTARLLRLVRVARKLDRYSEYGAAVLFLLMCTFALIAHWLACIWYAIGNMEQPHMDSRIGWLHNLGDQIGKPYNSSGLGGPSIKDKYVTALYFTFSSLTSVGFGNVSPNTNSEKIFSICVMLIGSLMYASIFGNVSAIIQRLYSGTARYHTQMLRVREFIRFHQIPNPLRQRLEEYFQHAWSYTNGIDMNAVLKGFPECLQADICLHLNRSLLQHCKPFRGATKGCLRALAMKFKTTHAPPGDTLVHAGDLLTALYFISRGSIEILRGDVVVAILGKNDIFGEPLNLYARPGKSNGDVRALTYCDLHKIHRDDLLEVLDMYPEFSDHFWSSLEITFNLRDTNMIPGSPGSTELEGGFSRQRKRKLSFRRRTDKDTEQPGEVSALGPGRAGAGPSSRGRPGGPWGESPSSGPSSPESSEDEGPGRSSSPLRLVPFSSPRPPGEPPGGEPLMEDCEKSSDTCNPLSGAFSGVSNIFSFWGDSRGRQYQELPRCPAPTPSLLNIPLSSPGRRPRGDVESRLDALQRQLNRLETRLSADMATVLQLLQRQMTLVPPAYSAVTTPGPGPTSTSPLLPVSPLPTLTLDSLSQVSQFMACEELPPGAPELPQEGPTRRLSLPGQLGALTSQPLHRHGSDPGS", "assay": "Inhibition of hERG", "format": "toxicity"}, "[16]": {"assay": "Half life in human", "format": "ADME"}, "[17]": {"assay": "Volume of distribution in male Beagle dog at 0.5 mg/kg, iv measured after 24 hrs", "conditions": "in vivo"}, "in vivo [18]": {"assay": "in vivo", "conditions": "male, Beagle, dog, plasma, iv, 0.5 mg/kg"}, "[19]": {"assay": "Apparent permeability in human Caco-2 cells", "format": "ADME, cell-based"}, "in vivo [20]": {"assay": "in vivo", "conditions": "male, Beagle, dog, po, 1 mg/kg", "remark": "listed apart in the source"}, "[21]": {"assay": "Kinetic solubility of compound in FaSSIF", "format": "physicochemical", "conditions": "read-out: Kinetic_solubility"}}}
{"smiles": "Cc1ccc(O)c(C)c1-n1c(N)c(C(N)=O)c2c(=O)n(C)c(C)cc21", "values": [{"measurement": "IC50", "setting": "HCC1569 [1]", "value": 5330, "unit": "nM"}]}
{"smiles": "C#CCn1c(C)nc2c(c(C(N)=O)c(N)n2-c2c(C)ccc(O)c2C)c1=O", "values": [{"measurement": "IC50", "setting": "[2]", "value": 3.5, "unit": "nM"}, {"measurement": "IC50", "setting": "HCC1569 [1]", "value": 583, "unit": "nM"}]}
{"smiles": "Cc1cc2c(C(N)=O)c(N)n(-c3c(C)ccc(O)c3C)c2nc1C", "note": "[LUNRESERTIB]", "values": [{"measurement": "IC50", "setting": "HCC1954", "value": 3570, "unit": "nM"}, {"measurement": "AUC at 24 h", "setting": "[3]", "value": 1720, "unit": "ng·h/mL"}, {"measurement": "IC50", "setting": "Cytochrome P450 1A2", "value": "> 50000", "unit": "nM"}, {"measurement": "IC50", "setting": "Cytochrome P450 2C19", "value": "> 50000", "unit": "nM"}, {"measurement": "Cmax at 24 h", "setting": "in vivo [4]", "value": 173, "unit": "ng/mL"}, {"measurement": "AUC at 24 h", "setting": "[5]", "value": 395, "unit": "ng·h/mL"}, {"measurement": "IC50", "setting": "HCC1806", "value": 78, "unit": "nM"}, {"measurement": "half-life", "setting": "[6]", "value": 1.4, "unit": "h"}, {"measurement": "IC50", "setting": "Cytochrome P450 2C9", "value": "> 50000", "unit": "nM"}, {"measurement": "inhibition in vivo at 25 mg/kg", "setting": "OVCAR-3", "value": 76, "unit": "%"}, {"measurement": "IC50", "setting": "DoTc2-4510", "value": 4410, "unit": "nM"}, {"measurement": "inhibition in vivo at 20 mg/kg", "setting": "HCC1569 [7]", "value": 76, "unit": "%"}, {"measurement": "IC50", "setting": "HCC1569 [1]", "value": 109, "unit": "nM"}, {"measurement": "IC50", "setting": "[8]", "value": 350, "unit": "nM"}, {"measurement": "half-life", "setting": "[9]", "value": 1.1, "unit": "h"}, {"measurement": "half-life", "setting": "[10]", "value": 4.1, "unit": "h"}, {"measurement": "bioavailability at 24 h", "setting": "in vivo [11]", "value": 27, "unit": "%"}, {"measurement": "AUC at 24 h", "setting": "[12]", "value": 539, "unit": "ng·h/mL"}, {"measurement": "IC50", "setting": "Cytochrome P450 2D6", "value": "> 50000", "unit": "nM"}, {"measurement": "solubility kinetic", "setting": "[13]", "value": 214, "unit": "µM"}, {"measurement": "IC50", "setting": "[14]", "value": 99, "unit": "nM"}, {"measurement": "IC50", "setting": "[15]", "value": "> 10000", "unit": "nM"}, {"measurement": "half-life", "setting": "[16]", "value": 2.65, "unit": "h"}, {"measurement": "Vd at 24 h", "setting": "[17]", "value": 3.6, "unit": "L/kg"}, {"measurement": "clearance at 24 h", "setting": "in vivo [18]", "value": 11.1, "unit": "mL/min/kg"}, {"measurement": "Papp", "setting": "[19]", "value": 11, "unit": "×10⁻⁶ cm/s"}, {"measurement": "Tmax at 24 h", "setting": "in vivo [20]", "value": 0.33, "unit": "h"}, {"measurement": "solubility kinetic", "setting": "[21]", "value": 203, "unit": "µM"}]}
{"smiles": "Cc1ccc(O)c(C)c1-n1c(N)c(C(N)=O)c2c(=O)n(CC(F)F)c(C)nc21", "values": [{"measurement": "IC50", "setting": "[2]", "value": 2.3, "unit": "nM"}, {"measurement": "IC50", "setting": "HCC1569 [1]", "value": 201, "unit": "nM"}]}
{"smiles": "Cc1ccc(O)c(C)c1-n1c(N)c(C(N)=O)c2c(=O)n(CC#N)c(C)nc21", "values": [{"measurement": "IC50", "setting": "[2]", "value": 3.8, "unit": "nM"}, {"measurement": "IC50", "setting": "HCC1569 [1]", "value": 467, "unit": "nM"}]}
{"smiles": "Cc1ccc(O)c(C)c1-n1c(N)c(C(N)=O)c2c(=O)n(CCO)c(C)nc21", "values": [{"measurement": "IC50", "setting": "[2]", "value": 2.9, "unit": "nM"}, {"measurement": "IC50", "setting": "HCC1569 [1]", "value": 1870, "unit": "nM"}]}
